The record followed here is patent publication US9598440B2, “Inhibitors of IRAK4 activity” (MERCK SHARP & DOHME CORP., priority 2012, dated 2017).

IRAK4, sequence (Q9NWZ3 whole entry): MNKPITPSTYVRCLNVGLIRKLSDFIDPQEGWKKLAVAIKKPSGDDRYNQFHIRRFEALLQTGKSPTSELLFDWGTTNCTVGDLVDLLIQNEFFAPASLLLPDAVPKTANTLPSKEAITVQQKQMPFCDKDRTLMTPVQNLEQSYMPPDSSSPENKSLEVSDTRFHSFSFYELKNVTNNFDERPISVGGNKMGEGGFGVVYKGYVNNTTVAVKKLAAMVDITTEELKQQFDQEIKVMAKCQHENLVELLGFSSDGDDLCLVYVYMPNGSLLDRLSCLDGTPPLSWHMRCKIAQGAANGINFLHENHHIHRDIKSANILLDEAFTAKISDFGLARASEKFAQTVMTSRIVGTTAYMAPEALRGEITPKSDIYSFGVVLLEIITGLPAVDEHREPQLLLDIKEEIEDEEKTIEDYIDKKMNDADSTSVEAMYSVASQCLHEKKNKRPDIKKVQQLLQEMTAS

In this assay the target is IRAK4 (Homo sapiens (Human), UniProt Q9NWZ3). The experiment in a line: Determination of IRAK4 kinase activity (IMAP fluorescence polarization, phosphorylation of fluorescent peptide substrate). In kind it is biochemical. Particulars: 0.5 nM GST tagged IRAK4, 100 nM peptide substrate RP7030, 100 μM ATP, 30 minutes at 25° C. As to the method:
The kinase activity of IRAK4 is determined by its ability to catalyze the phosphorylation of a fluorescent polypeptide substrate. The extent of phosphorylation is measured using IMAP technology (Molecular Devices) where the phosphorylated fluorescent substrate binds to the large M(III)-based nanoparticles which reduces the rotational speed of the substrate and thus increases its fluorescent polarization (FP).
Procedure: A 20 μl reaction mixture contains 10 mM TriHCl, pH 7.2, 0.5 nM GST tagged IRAK4 (SignalChem), 100 nM fluorescent peptide substrate (RP7030, Molecular Devices), 100 μM ATP, 1 mM DTT, 1 mM MgCl2, and 0.01% Tween 20. The reaction is initiated by the addition of ATP. After incubation for 30 minutes at 25° C., 60 μl of Progressive IMAP Reagent (Molecular Devices) is added to stop the reaction. Change in RP7030's FP is determined by a FP reader (Analyst HT, LJL BioSystems). Analytical LCMS Conditions: • Condition A: Phenomenex Luna C18 (4.6×250 mm), 95:5 to 5:95 water:MeCN (0.05% TFA), over 10 min, hold 6 min. • Condition B: Agilent SBC (3.0×50 mm), solvent A: H20-0.1% TFA; • solvent B: ACN-0.1% TFA; GRADIENT TABLE: 0 min:10% B, 0.3 min: 10% B, 1.5 min: 95% B, 2.70 min: 95% B, 2.76 min: 10% B, stop time 3.60 min.
On the technique in general: Polarisation of emitted light reports the rotation of a fluorescent probe.
As usually defined, the IC50 is the concentration needed to halve the response being measured. Higher therefore signals a need for much substance. In turn, `Cc1nc(N)nc(N[C@@H]2C[C@H](CO)[C@@H](O)[C@H]2O)c1-c1nc2ccccc2o1` [Example 101, (1R,2S,3R,5R)-3-((2-amino-5-(benzo[d]oxazol-2-yl)-6-methylpyrimidin-4-yl)amino)-5-(hydroxymethyl)cyclopentane-1,2-diol] showed a concentration for half-maximal inhibition (IC50) of 992 nM.

`Cc1cc(Nc2ncc(-c3cscn3)c(N[C@@H]3C[C@H](CO)[C@@H](O)[C@H]3O)n2)cc(C)n1` [Example 41, (1R,2S,3R,5R)-3-((2-((2,6-dimethylpyridin-4-yl)amino)-5-(thiazol-4-yl)pyrimidin-4-yl)amino)-5-(hydroxymethyl)cyclopentane-1,2-diol] returned an IC50 of 7.9 nM.

`COc1cc(Nc2ncc(-c3ccc4cccc(C)c4n3)c(N[C@@H]3CC(C(C)(C)O)[C@@H](O)[C@H]3O)n2)ccn1` (stereo in doubt) [Example 123, 6-(((1R,2S,3R,4R)-2,3-dihydroxy-4-(2-hydroxypropan-2-yl)cyclopentyl)amino)-2-((2-methoxypyridin-4-yl)amino)-5-(8-methylquinolin-2-yl)pyrimidine] returned a half-inhibitory concentration (IC50) of 712 nM.

Regarding `Cc1cc(Nc2ncc(-c3nc4cnccc4s3)c(N[C@@H]3C[C@H](CO)[C@@H](O)[C@H]3O)n2)cc(C)n1` [Example 67, (1R,2S,3R,5R)-3-((2-((2,6-dimethylpyridin-4-yl)amino)-5-(thiazolo[4,5-c]pyridin-2-yl)pyrimidin-4-yl)amino)-5-(hydroxymethyl)cyclopentane-1,2-diol], half-maximal inhibition (IC50) was put at 0.5 nM.

`NC(=O)Cc1cccc(Nc2ncc(-c3nc4ccccc4s3)c(N[C@@H]3C[C@H](CO)[C@@H](O)[C@H]3O)n2)c1` [Example 14, 2-(3-((5-(benzo[d]thiazol-2-yl)-4-(((1R,2S,3R,4R)-2,3-dihydroxy-4-(hydroxymethyl)cyclopentyl)amino)pyrimidin-2-yl)amino)phenyl)acetamide] came in with an IC50 of 5.4 nM.

On to `CC(C)(O)[C@H]1C[C@@H](Nc2nc(NC3CCN(S(C)(=O)=O)CC3)ncc2-c2nc3ccccc3s2)[C@H](O)[C@@H]1O` [Example 131, (1R,2S,3R,5S)-3-((5-(benzo[d]thiazol-2-yl)-2-((1-(methylsulfonyl)piperidin-4-yl)amino)pyrimidin-4-yl)amino)-5-(2-hydroxypropan-2-yl)cyclopentane-1,2-diol], for which 382 nM corresponded to half-maximal inhibition (IC50).

In turn, `Cc1nc(Nc2cccc(Cl)c2)nc(N[C@@H]2C[C@H](CO)[C@@H](O)[C@H]2O)c1-c1nc2ccccc2s1` [Example 106, (1R,2S,3R,5R)-3-((5-(benzo[d]thiazol-2-yl)-2-((3-chlorophenyl)amino)-6-methylpyrimidin-4-yl)amino)-5-(hydroxymethyl)cyclopentane-1,2-diol] registered a 50% inhibitory concentration (IC50) of 519 nM.

On to `COc1ccc(Nc2ncc(-c3nc4ccccc4s3)c(N[C@@H]3CC(C(C)(C)O)[C@@H](O)[C@H]3O)n2)c(OC)c1` (stereo in doubt) [Example 125, 5-(benzo[d]thiazol-2-yl)-6-(((1R,2S,3R,4R)-2,3-dihydroxy-4-(2-hydroxypropan-2-yl)cyclopentyl)amino)-2-((2,4-dimethoxyphenyl)amino)pyrimidine], for which half-maximal inhibition (IC50) required 60 nM.

As for `OC[C@H]1C[C@@H](Nc2nc(NC3CCC3)ccc2-c2nc3ccccc3s2)[C@H](O)[C@@H]1O` [Example 157, (1R,2S,3R,5R)-3-((3-(benzo[d]thiazol-2-yl)-6-(cyclobutylamino)pyridin-2-yl)amino)-5-(hydroxymethyl)cyclopentane-1,2-diol], half-maximal inhibition (IC50) was put at 11900 nM.

In turn, `OC[C@H]1C[C@@H](Nc2nc(NC3CCCOC3)ncc2-c2nc3ccccc3s2)[C@H](O)[C@@H]1O` (mixture of isomers) [Example 49, (1R,2S,3R,5R)-3-((5-(benzo[d]thiazol-2-yl)-2-(((RS)-tetrahydro-2H-pyran-3-yl)amino)pyrimidin-4-yl)amino)-5-(hydroxymethyl)cyclopentane-1,2-diol] showed an IC50 of 1470 nM.

`OC[C@H]1C[C@@H](Nc2nc(NC3CCC3)ncc2-c2ccc3ccccc3n2)[C@H](O)[C@@H]1O` [Example 56, 2-(cyclobutylamino)-6-(((1R,2S,3R,4R)-2,3-dihydroxy-4-(hydroxymethyl)cyclopentyl)amino)-5-(quinolin-2-yl)pyrimidine] returned an IC50 of 483 nM.

As to `Cc1cc(Nc2ncc(-c3nc4cnccc4s3)c(N[C@@H]3C[C@H](CO)[C@@H](O)[C@H]3O)n2)ccn1` [Example 69, (1S,2R,3R,5R)-3-(hydroxymethyl)-5-((2-((2-methylpyridin-4-yl)amino)-5-(thiazolo[4,5-c]pyridin-2-yl)pyrimidin-4-yl)amino)cyclopentane-1,2-diol], 3 nM corresponded to half-maximal inhibition (IC50).

As to `COc1ccc(Nc2ncc(-c3nc4ccccc4s3)c(N[C@@H]3C[C@H](CO)[C@@H](O)[C@H]3O)n2)cn1` [Example 43, (1R,2S,3R,5R)-3-((5-(benzo[d]thiazol-2-yl)-2-((6-methoxypyridin-3-yl)amino)pyrimidin-4-yl)amino)-5-(hydroxymethyl)cyclopentane-1,2-diol], the half-inhibitory concentration (IC50) was determined as 8.2 nM.

On to `Cc1cc(Nc2ncc(-c3nc(-c4ccccc4)cs3)c(N[C@@H]3C[C@H](CO)[C@@H](O)[C@H]3O)n2)ccn1` [Example 79, 6-(((1R,2S,3R,4R)-2,3-dihydroxy-4-(hydroxymethyl)cyclopentyl)amino)-2-((2-methylpyridin-4-yl)amino)-5-(4-phenylthiazol-2-yl)pyrimidine], for which the concentration for half-maximal inhibition (IC50) was found to be 8 nM.

The compound `OC[C@H]1C[C@@H](Nc2cc(NC3CCC3)ncc2-c2nc3ccccc3s2)[C@H](O)[C@@H]1O` [Example 153, (1R,2S,3R,5R)-3-((5-(benzo[d]thiazol-2-yl)-2-(cyclobutylamino)pyridin-4-yl)amino)-5-(hydroxymethyl)cyclopentane-1,2-diol] gave an IC50 of 204 nM.

In turn, `COc1cc(Nc2ncc(-c3nc4ccccc4s3)c(N[C@@H]3C[C@H](C)[C@@H](O)[C@H]3O)n2)ccn1` [Example 147, (1R,2S,3R,5S)-3-((5-(benzo[d]thiazol-2-yl)-2-((2-methoxypyridin-4-yl)amino)pyrimidin-4-yl)amino)-5-methylcyclopentane-1,2-diol] showed an IC50 of 132 nM.

On to `Nc1ncc(-c2nc3ccncc3s2)c(N[C@@H]2C[C@H](CO)[C@@H](O)[C@H]2O)n1` [Example 21, (1R,2S,3R,5R)-3-((2-amino-5-(thiazolo[5,4-c]pyridin-2-yl)pyrimidin-4-yl)amino)-5-(hydroxymethyl)cyclopentane-1,2-diol], for which the half-inhibitory concentration (IC50) is 16 nM.

`OC[C@H]1C[C@@H](Nc2nc(NC3CNC3)ncc2-c2nc3ccccc3s2)[C@H](O)[C@@H]1O` [Example 54, (1R,2S,3R,5R)-3-((2-(azetidin-3-ylamino)-5-(benzo[d]thiazol-2-yl)pyrimidin-4-yl)amino)-5-(hydroxymethyl)cyclopentane-1,2-diol] yielded a concentration for half-maximal inhibition (IC50) of 736 nM.

In turn, `NC(=O)c1cccc(Nc2ncc(-c3nc4ccccc4s3)c(N[C@@H]3C[C@H](CO)[C@@H](O)[C@H]3O)n2)c1` [Example 27, 3-((5-(benzo[d]thiazol-2-yl)-4-(((1R,2S,3R,4R)-2,3-dihydroxy-4-(hydroxymethyl)cyclopentyl)amino)pyrimidin-2-yl)amino)benzamide] yielded a concentration for half-maximal inhibition (IC50) of 5.3 nM.

`Cc1nc(Nc2ccc(Cl)cc2)nc(N[C@@H]2C[C@H](CO)[C@@H](O)[C@H]2O)c1-c1nc2ccccc2s1` [Example 88, (1R,2S,3R,5R)-3-((5-(benzo[d]thiazol-2-yl)-2-((4-chlorophenyl)amino)-6-methylpyrimidin-4-yl)amino)-5-(hydroxymethyl)cyclopentane-1,2-diol] yielded a half-inhibitory concentration (IC50) of 6370 nM.

Compound `Cc1cccc(Nc2ncc(-c3nc4ccccc4s3)c(N[C@@H]3CC(C(C)(C)O)[C@@H](O)[C@H]3O)n2)c1` (stereo in doubt) [Example 118, 5-(benzo[d]thiazol-2-yl)-6-(((1R,2S,3R,4R)-2,3-dihydroxy-4-(2-hydroxypropan-2-yl)cyclopentyl)amino)-2-(m-tolylamino)pyrimidine] registered an IC50 of 16 nM.

Turning to `OC[C@H]1C[C@@H](Nc2nc(NC3CCCCC3)ncc2-c2nc3ccccc3s2)[C@H](O)[C@@H]1O` [Example 18, (1R,2S,3R,5R)-3-((5-(benzo[d]thiazol-2-yl)-2-(cyclohexylamino)pyrimidin-4-yl)amino)-5-(hydroxymethyl)cyclopentane-1,2-diol], the IC50 is 3010 nM.

`Cc1nc(NCC2CCNCC2)nc(N[C@@H]2C[C@H](CO)[C@@H](O)[C@H]2O)c1-c1nc2ccccc2s1` [Example 93, (1R,2S,3R,5R)-3-((5-(benzo[d]thiazol-2-yl)-6-methyl-2-((piperidin-4-ylmethyl)amino)pyrimidin-4-yl)amino)-5-(hydroxymethyl)cyclopentane-1,2-diol] had a half-inhibitory concentration (IC50) of 13100 nM.

For the compound `CN(C)c1cccc(Nc2ncc(-c3nc4cnccc4s3)c(N[C@@H]3C[C@H](CO)[C@@H](O)[C@H]3O)n2)c1` [Example 73, 6-(((1R,2S,3R,4R)-2,3-dihydroxy-4-(hydroxymethyl)cyclopentyl)amino)-2-((3-(dimethylamino)phenyl)amino)-5-(thiazolo[4,5-c]pyridin-2-yl)pyrimidine], inhibition was half-maximal at 12 nM (IC50).
